Experimental data: article PMC6010047, “Design, synthesis and biological evaluation of novel hydroxy-phenyl-1H-benzimidazoles as radical scavengers and UV-protective agents” (Journal of Enzyme Inhibition and Medicinal Chemistry, 2017)

What was measured:
[1] = Ferric reducing antioxidant of potency (FRAP) assay; assay type: biochemical; settings: Trolox equivalents; mean ± SE of three experiments
Experimental: The ferric reducing ability of each standard solution was measured according to a modified protocol described by Guihua et al.[26]. The reagent for analysis was freshly prepared by mixing the following solutions in the reported ratio 10/1/1 (v:v:v) (i) 0.1 M acetate buffer pH 3.6, (ii) TPTZ (2,4,6-Tri(2-pyridyl)-s-triazine) 10 mmol/L in 40 mmol/HCl, (iii) ferric chloride 20 mmol/L. To a 1.9 mL of reagent were added 0.1 mL of sample proper diluted or solvent when blank was performed. Readings at fixed wavelength of the absorption maximum (593 nm) were done after 30 min, using a UV-VIS spectrophotometer; it was evaluated the absorbance increase of sample solution against the absorbance of blank reaction as parameter to calculate the antioxidant activity. The antioxidant activity is given as Trolox activity since this standard was used to perform the calibration curves.

[2] = Photochemiluminescence (PCL) method, ACL kit; assay type: biochemical; settings: pure compound; Trolox equivalents; mean ± SE of three experiments
Experimental: PCL assay, based on the methodology of Popov and Lewin[23], was used to measure the antioxidant activity of synthesized compounds with a Photochem® apparatus (Analytik Jena, Leipzig, Germany) against superoxide anion radicals generated from luminol, a photosensitizer, when exposed to UV light (Double Bore® phosphor lamp, output 351 nm, 3 mWatt/cm^2). The antioxidant activity was measured using ACL (Antioxidant Capacity of Liposoluble substance) kit provided by the manufacturer designed to measure the antioxidant activity of lipophilic compounds[24]. […] The areas under the curves were calculated using the PCLsoft control and analysis software. […] This inhibition was used as a parameter for quantification and related to the decrease in the integral of PCL intensities caused by varying concentrations of Trolox. The observed inhibition of the signal was plotted against the concentration of Trolox added to the assay medium. The concentration of the added tested compounds was such that the generated luminescence during the 180-s sampling interval fell within the limits of the standard curve. The antioxidant assay was carried out in triplicate for each sample, and 20 μL of the diluted compound in HPLC-grade methanol (ACL) was sufficient to correspond to the standard curve.

[3] = In vitro evaluation of filtering parameters of formulations on PMMA plates (Diffey and Robson); settings: 3% (w/w) in O/W formulation, PMMA plates
From the text: It was decided to use a standard formulation oil in water (O/W).
In vitro approaches consist in applying a thin film of sunscreen product on an artificial substrate and test, via spectrophotometric measures, the amount of UV radiation passing through the film. Several different artificial substrates are available for this type of analysis; the substrate should be as closed as possible to the physical characteristics of the skin. Among the substrates available for these purposes, the substrate used in this study to analyse the sunscreen products were PMMA plates. This substrate is easily handled and can be supplied with a reproducible roughness. WW5 PMMA plates have been purchased from Schonberg GmbH (Munich, Germany). The plates, used in this study, have an area of 25 cm^2 and standardized […] roughness. Transmittance and absorbance measurements were carried out by a SHIMAZDU UV-2600 provided of integrating sphere ISR 2600 60 mm and coupled with a SPF determination software and a PMMA plate with approximately 15 μL of glycerin served as reference.
In order to evaluate possible activity as sun filters and antioxidants, suitable in the development of novel class of dualistic sunscreens, the synthesized molecules were included at the concentration of 3% (w/w) in a topical formulation. To this end standard oil in water (O/W) formulation was devised, taking into account the absence of any UV filtering and/or antioxidant molecule, in order to obtain a reference formulation. It was not possible to analyze compound 7 in the formulation because of high instability (phase separation induced by 7). Formulations containing the active ingredients were tested for their SPF efficacy by the in vitro method derived from Diffey and Robson[32], in comparison with the same formulation containing the reference PBSA.
This method is based on the measure of spectral transmission of ultraviolet radiation, with and without the sunscreen applied, through an irregular substrate that simulates the skin surface and permits transmission of UV radiation. Although with some limitation, the test is used to predict SPF in vivo and to screen the filtering activity of new molecules that cannot be tested by in vivo because of lacking of more data concerning safety. The critical wavelength (λc) for the test product is defined as that wavelength where the area under the absorbance spectrum for the irradiated product from 290 nm to λc is 90% of the integral of the absorbance spectrum from 290 nm to 400 nm. Critical wavelength value of greater than 370 nm is necessary, in order to satisfy requirements for broad-spectrum UVB/UVA protection and associated labeling. Polymethylmethacrylate plates (PMMA) with a specific roughness were a satisfactory substrate for this method, because they are UV-transparent, nonfluorescent, photostable and inert to all potential sunscreen formulation ingredients. Table 3 lists the data obtained for the model formulation containing the synthesized compounds. These parameters are necessary to evaluate whether a sunscreen fulfills the requirements for efficacy, and they are SPF, UVA protection factor (UVAPF), UVA/UVB ratio and critical wavelength.
A set of model formulations was prepared: an oil-in-water emulsion (O/W), without sunscreen molecules (Ref. A, Figure 5), prepared as reference formulation; two formulations containing PBSA or oxisol (12) at 3% were prepared (Ref. C and B, respectively, Figure 5), in order to evaluate the filter properties of oxisol (12). Moreover, as stated earlier, SPF booster properties were assayed on other four formulations including a mix of filters with a theoretical SPF value of 15 and 30, adding 3% of oxisol (12) or PBSA (Ref. E, F, G, H, Figure 5). […]

[4] = 1,1-Diphenyl-2-picryl-hydrazyl radical (DPPH) assay; assay type: biochemical; settings: Trolox equivalents; mean ± SE of three experiments
Experimental: To 1.5 mL DPPH methanolic solution (0.5 mM) was added 0.750 mL of sample solution proper diluted. Samples absorbance measurements were evaluated with a UV-VIS spectrophotometer (Thermo Spectronic Helios γ, Cambridge, UK) at fixed wavelength of 517 nm. Blank sample was prepared adding methanol to DPPH solution and Trolox was used as standard reference to achieve a calibration curve. The radical-scavenging activity is expressed as inhibition ratio of initial concentration of DPPH radical and is calculated according to the formula: Inhibition percentage (Ip) = [(AB-As)/AB]·100; where AB and As are, respectively, the absorbance values of blank reaction and of the tested sample[25].

[5] = Cytotoxicity, MTT test, 72 h; settings: human, NCTC-2544 keratinocytes (immortalized, nontumorigenic)
Experimental: An immortalized, nontumorigenic cell line of human keratinocytes (NCTC-2544) was grown in a DMEM medium (Sigma-Aldrich Milan, Italy), supplemented with 115 units/mL of penicillin G, 115 μg/mL streptomycin, and 10% fetal calf serum (Invitrogen, Milan, Italy). Individual wells of a 96-well tissue culture microtiter plates (Falcon, Becton–Dickinson) were inoculated with 100 μL of complete medium containing 5 × 10^3 NCTC-2544. The plates were incubated at 37 °C in a humidified (5% CO2) incubator for 18 h prior to the experiments.
After medium removal, 100 μL of the drug solution, dissolved in DMSO and diluted in DMEM medium, was added to each well, incubated at 37 °C for 72 h. Final DMSO concentration never exceeded 0.5%. Cell viability was assayed by the MTT (3–(4,5-dimethylthiazol-2-yl)-2,5 diphenyl tetrazolium bromide) test as previously described by Mosmann[27].
The tests were conducted using a specific cell line of human keratinocytes (NCTC-2544). To assess cell viability, in the presence of the study compounds, before and after the irradiation, the MTT assay was performed[27]. The cytotoxicity was checked after 72 h from the incubation of the keratinocytes with compounds; moreover, the same experiments were performed in the presence of the parent PBSA.

Compound `O=C(O)c1ccc2[nH]c(-c3ccc(O)c(O)c3O)nc2c1` [Compound 15, 2-(2,3,4-Trihydroxy-phenyl)-1H-benzimidazole-5-carboxylic acid] has an FRAP [1] of 2355.15 ± 52.55 μmolTrolox/mmol, a PCL [2] of 1515.65 ± 75.56 μmolTrolox/mmol and an SPF [3] of 3.69 ± 0.24. The UVA/UVB [3] was 0.96 ± 0.08, the UVAPF [3] was 1.87 ± 0.08 and the “λc (critical wavelength)” value [3] was 382 nm. It also gave a DPPH [4] of 1241.03 ± 9.43 μmolTrolox/mmol and an IC50 at 72 h [5] of over 50 µM.
